Data from US11446265B2, “Reagents, compositions and methods for improving viability and function of cells, tissues and organs” (TARGA BIOMEDICAL, priority 2016, dated 2022).

Tests used:
[1] = test system: human mesenchymal stem cells (hMSC); test: mRNA expression in hMSC by real-time PCR; format: cell-based; conditions: for ranking as adjunct agent in combination with Celastrol or Celastrol analogs (gene expression) / ranking as HSP90 inhibitor from expression of HSPs, growth factors, antioxidant proteins/enzymes, cytokines, matrix remodeling proteins: FIGS. 25A, 25B, 26A to 26D
From the text: FIG. 25A is a table representing mRNA expression of selected genes measured by real-time PCR in human mesenchymal stem cells (hMSC) conditioned with Celastrol alone or in combination with selected adjunct agents. Results are expressed as fold change versus Vehicle-treated cells.
FIG. 25B is a table representing mRNA expression of selected genes measured by real-time PCR in human mesenchymal stem cells (hMSC) conditioned with selected Celastrol analogs alone or in combination with selected adjunct agents. Results are expressed as fold change versus Vehicle-treated cells.
Results are expressed as fold change versus Vehicle-treated cells. (Arbitrary angiogenic index: (VEGFa+FGF2+SDF1)*2) (A=Additive effect; S=Synergistic effect).
(§1) To test the second main condition, MSCs were treated with the candidate pharmaco-optimizers for 1 hour, followed by 3 hours washout period. Cell mRNA was extracted and expression of genes of interest was quantified by real time PCR. In additional MSC cultures, cells were treated for one hour, washed and cultured in low serum media for 24 hours. The media containing paracrine factors secreted by MSCs was then placed in contact with H9c2 cardiomyoblast cell line. H9c2 cells were then submitted to the hypoxia/serum starvation (<1% O2 in hypoxia chamber in low serum media for 48 hours) or oxidative stress (incubation in media for 1 hour spiked with 0-1 mM H2O2). Viability status of H9c2 cells was evaluated using the LIVE/DEAD assay as detailed above.

[2] = test system: human mesenchymal stem cells (hMSCs); test: VEGFa protein secreted by hMSC into culture medium; format: cell-based; conditions: 1-hour treatment combined with Celastrol; for VEGF protein after 48 hours in hypoxic condition: compared with normal culture; for VEGF protein after 48 hours in normal culture: normoxic
H9c2 cells = test: H9c2 viability in oxidative stress after pre-conditioning with media from treated rMSC (paracrine); format: cell-based, rat; conditions: 24-hour preconditioning with media from treated rMSC
Experimental: as §1

[3] = test system: rat mesenchymal stem cells (rMSC); test: rMSC viability after hypoxia/serum starvation (LIVE/DEAD); format: cell-based; conditions: 1-hour treatment; for protection of rMSCs from 48-hour hypoxia induced cell death: compound alone
Experimental: (§2) To test the first main condition, MSCs (either sourced from rat or humans) were treated with the candidate pharmaco-optimizers, washed and submitted to hypoxia/serum starvation (<1% O2 in hypoxia chamber in low serum media for 48-72 hours) or oxidative stress (incubation in media for 1 hour spiked with 0-2 mM H2O2), which mimic the major lethal stressors present in the ischemic transplant microenvironment. Viability status of cells are assessed using the LIVE/DEAD viability/cytotoxicity kit (Life Technologies™) and results are quantified by Operetta high content screening (HCS) apparatus equipped with Harmony automated analysis software (Perkin Elmer™).

H9c2 cardiomyoblasts [4] = test: H9c2 viability after oxidative challenge, direct treatment with Celastrol combinations; format: cell-based, rat; conditions: 1-hour treatment combined with Celastrol; 1 mM H2O2 for 1 hour
[5] = test system: rat mesenchymal stem cells (rMSC); test: mRNA expression in rMSC by real time PCR; format: cell-based; conditions: for effect on Celastrol-induced Catalase (CAT) mRNA expression / effect on Celastrol-induced FGF2 mRNA expression / effect on Celastrol-induced Glutathione peroxidase (GPx) mRNA expression / effect on Celastrol-induced Glutathione reductase (GR) mRNA expression / effect on Celastrol-induced HSP32 (HO-1) mRNA expression / effect on Celastrol-induced HSP70 mRNA expression / effect on Celastrol-induced Superoxide dismutase 1 (SOD1) mRNA expression / effect on Celastrol-induced VEGFα mRNA expression / effect on Celastrol-induced downregulation of TNFα mRNA / effect on Celastrol-induced HSP70 expression in two other rMSC cell lines: combined with Celastrol
Experimental: as §1
Combination Treatments Tested—First Experiment: Celastrol (1 μM) or Gedunin (1 μM)+EGCG (1 μM, 10 μM) or TBHQ (1 μM, 5 μM)

H9c2 cardiomyoblasts [6] = test: H9c2 viability under hypoxia/reoxygenation stress; format: cell-based, rat; conditions: 1 uM
Experimental: Next, the hypoxia/reoxygenation challenge is performed. Briefly, viability analysis was performed in rat H9c2 cardiomyoblasts as previously reported. For hypoxia/reoxygenation stress, cells were cultured in DMEM no glucose (Life Technologies), serum starved and placed in hypoxic conditions (<1% O2) for 18 h. At reoxygenation (normoxic conditions), cells were treated with Celastrol (10^−10 to 10^−6 mol/L, Cayman Chemical, Ann Arbor, Mich.), Celastrol analogs or vehicle (Dimethyl sulfoxide (DMSO), Sigma-Aldrich Canada, Oakville, ON; final concentration<1% v/v) in DMEM high glucose 1% FBS for 1 h, then reoxygenation was continued in DMEM high glucose for an additional 5 h.

[7] = test system: antioxidant responsive elements (ARE); test: Antioxidant response luciferase reporter assay in H9c2; format: cell-based, rat; conditions: H9c2, 10E-5 to 10E-10M, 4 hours, 3 hours washout
Experimental: (§3) H9c2 rat cardiomyoblasts were seeded at a density of 5,000 cells per well in 96 well plates in DMEM 10% FBS complete medium and transfected using lipofectamine with the Cignal Reporter Assay Heat shock response and Antioxidant response kits (SABiosciences, Qiagen) according to the manufacturers' protocol.

[8] = test system: heat shock response (HSR); test: Heat shock response luciferase reporter assay in H9c2; format: cell-based, rat; conditions: H9c2, 10E-5 to 10E-10M, 4 hours, 3 hours washout
Experimental: as §3

H9c2 cardiomyoblasts [9] = test: H9c2 viability under hypoxia/serum starvation (LIVE/DEAD); format: cell-based, rat; conditions: 1 uM
Experimental: For survival to hypoxic challenge and oxidative challenge, H9c2 cardiomyoblasts are submitted to the hypoxia/serum starvation (<1% O2 in hypoxia chamber in low serum media for 48 hours) or oxidative stress (incubation in media for 1 hour spiked with 0-1 mM H2O2). Viability status of H9c2 cells was evaluated using the LIVE/DEAD assay.

H9c2 cardiomyoblasts [10] = test: HO-1 and VEGFa mRNA in H9c2 cardiomyoblasts by real-time PCR; format: cell-based, rat; conditions: H9c2, 1-hour with Celastrol plus adjunct, 3 hour washout in normoxic or hypoxic condition
From the text: Results are expressed as fold change versus Vehicle-treated h9c2.

[11] = test system: rat mesenchymal stem cells (rMSC); test: rMSC viability after oxidative stress (H2O2, LIVE/DEAD); format: cell-based; conditions: 1-hour treatment
Experimental: as §2

[12] = test system: human mesenchymal stem cells (hMSC); test: Proteomic analysis (mass spectrometry) of conditioned media of treated hMSC; format: cell-based; conditions: one hour Celastrol 10^−6 M
Experimental: Conditioned cell media was collected, concentrated, proteins were separated by gel electrophoresis and analyzed by mass spectrometry and identified through database search.
Briefly, rat MSCs were treated in suspension with conditioning compounds for 60 minutes. Cells were then washed, labeled with fluorescent cell tracker and injected at t=0 in rat left ischemic hindlimb. Transplanted cells were imaged in vivo until day 9 using Optix™ MX3 Molecular Imaging System from ART (FIG. 2: A,B).

[13] = rMSC, 1-hour treatment and 3-hour washout
[14] = rMSC, 1-hour treatment and 3-hour washout, combined with Gedunin
[15] = 1-hour treatment and 3-hour washout, combined with Celastrol

CC(C)(C)c1cc(O)ccc1O [tBHQ, tert-Butylhydroquinone]
ranking as adjunct agent in combination with Celastrol or Celastrol analogs (gene expression) [1]: among top adjunct agents
VEGF protein after 48 hours in hypoxic condition [2]: even greater expression of VEGF protein
VEGF protein after 48 hours in normal culture [2]: additive to synergistic increase in VEGF protein
protection of H9c2 cells from oxidative stress induced death (paracrine) (H9c2 cells): protects
protection of rMSCs from 48-hour hypoxia induced cell death [3]: not
viability of H9c2 cells following oxidative challenge (H9c2 cardiomyoblasts [4]): synergistic increase in viability
effect on Celastrol-induced Catalase (CAT) mRNA expression [5, 13]: synergistic increase
effect on Celastrol-induced FGF2 mRNA expression [5, 13]: synergistic increase
effect on Celastrol-induced Glutathione peroxidase (GPx) mRNA expression [5, 13]: synergistic increase
effect on Celastrol-induced Glutathione reductase (GR) mRNA expression [5, 13]: synergistic effect only at low dose
effect on Celastrol-induced HSP32 (HO-1) mRNA expression [5, 13]: synergistic increase
effect on Celastrol-induced HSP70 mRNA expression [5, 13]: synergistic increase
effect on Celastrol-induced Superoxide dismutase 1 (SOD1) mRNA expression [5, 13]: no effect
effect on Celastrol-induced VEGFα mRNA expression [5, 13]: decreases
effect on Celastrol-induced downregulation of TNFα mRNA [5, 13]: synergistically accentuate
FGF2 mRNA expression, combination with Gedunin [5, 14]: increased
effect on Gedunin-induced downregulation of TNFα mRNA [5, 14]: synergistically accentuate
effect on Gedunin expression of VEGF ([5]; rMSC, combined with Gedunin): decreases
effect on Celastrol-induced HSP70 expression in two other rMSC cell lines [5]: no effect

CC1=C(O)C(=O)C=C2C1=CC=C1[C@@]2(C)CC[C@@]2(C)[C@@H]3C[C@](C)(C(=O)NO)CC[C@]3(C)CC[C@]12C [Analog 4]
protection of H9c2 cardiomyoblasts from hypoxia/reoxygenation stress (H9c2 cardiomyoblasts [6]): effective
stimulation of reporter gene controlled by antioxidant responsive elements (ARE) [7]: among the most potent and efficient compounds tested
stimulation of reporter gene controlled by heat shock responsive elements (HSR) [8]: among the most potent and efficient compounds tested
protection of H9c2 cardiomyoblasts from hypoxia (H9c2 cardiomyoblasts [9]): effective

O=C(O[C@@H]1Cc2c(O)cc(O)cc2O[C@@H]1c1cc(O)c(O)c(O)c1)c1cc(O)c(O)c(O)c1 [EGCG, epigallocatechin gallate]
mRNA expression of HO-1 (H9c2 cardiomyoblasts [10]): increased mRNA expression
mRNA expression of VEGFa (H9c2 cardiomyoblasts [10]): increased mRNA expression
effect on Celastrol-induced HSP32 (HO-1) mRNA expression in human MSC [1, 15]: synergistic increase
effect on Celastrol-induced HSP70 mRNA expression in human MSC [1, 15]: synergistic increase
ranking as adjunct agent in combination with Celastrol or Celastrol analogs (gene expression) [1]: among top adjunct agents
VEGF protein after 48 hours in hypoxic condition [2]: even greater expression of VEGF protein
VEGF protein after 48 hours in normal culture [2]: additive to synergistic increase in VEGF protein
effect on Celastrol-induced protection of rMSCs from oxidative stress induced death ([11]; combined with Celastrol): potentiates Celastrol-induced protection
protection of rMSCs from oxidative stress induced death ([11]; compound alone): protect
protection of H9c2 cells from oxidative stress induced death (paracrine) (H9c2 cells): protects
effect on Celastrol-mediated protection of rMSCs from hypoxia induced cell death ([3]; combined with Celastrol): potentiates Celastrol-mediated protection
protection of rMSCs from 48-hour hypoxia induced cell death [3]: not
viability of H9c2 cells following oxidative challenge (H9c2 cardiomyoblasts [4]): synergistic increase in viability
effect on Celastrol-induced Catalase (CAT) mRNA expression [5, 13]: synergistic increase
effect on Celastrol-induced FGF2 mRNA expression [5, 13]: synergistic increase
effect on Celastrol-induced Glutathione peroxidase (GPx) mRNA expression [5, 13]: synergistic increase
effect on Celastrol-induced Glutathione reductase (GR) mRNA expression [5, 13]: synergistic increase
effect on Celastrol-induced HSP32 (HO-1) mRNA expression [5, 13]: synergistic increase
effect on Celastrol-induced HSP70 mRNA expression [5, 13]: synergistic increase
effect on Celastrol-induced Superoxide dismutase 1 (SOD1) mRNA expression [5, 13]: synergistic increase
effect on Celastrol-induced VEGFα mRNA expression [5, 13]: synergistic increase
effect on Celastrol-induced downregulation of TNFα mRNA [5, 13]: synergistically accentuate
effect on Gedunin-induced downregulation of TNFα mRNA [5, 14]: synergistically accentuate
effect on Celastrol-induced HSP70 expression in two other rMSC cell lines [5]: synergistic increase

Cc1c(O)c(O)cc2c1CC=C1[C@@]2(C)CC[C@@]2(C)[C@@H]3C[C@](C)(C(=O)O)CC[C@]3(C)CC[C@]12C [Dihydrocelastrol, dihydrocelastrol]
ranking as HSP90 inhibitor from expression of HSPs, growth factors, antioxidant proteins/enzymes, cytokines, matrix remodeling proteins [1]: best HSP90 inhibitors

CC1=C(O)C(=O)C=C2C1=CC=C1[C@@]2(C)CC[C@@]2(C)[C@@H]3C[C@](C)(C(=O)O)CC[C@]3(C)CC[C@]12C [Celastrol]
increased level of CAT in the culture media [12]: 1,7 fold
increased level of GSH in the culture media [12]: 2,8 fold
increased level of HGF in the culture media [12]: 2,1 fold
increased level of HO1 in the culture media [12]: 2,2 fold
increased level of HSP70 in the culture media [12]: 1,8 fold
increased level of HSP90a in the culture media [12]: 7,0 fold
increased level of HSP90b in the culture media [12]: 2,2 fold
increased level of MCSF in the culture media [12]: 24,4 fold
increased level of TRX in the culture media [12]: 2,5 fold

COc1cc(/C=C/C(=O)CC(=O)/C=C/c2ccc(O)c(OC)c2)ccc1O [Curcumin]
ranking as adjunct agent in combination with Celastrol or Celastrol analogs (gene expression) [1]: among top adjunct agents
VEGF protein after 48 hours in hypoxic condition [2]: even greater expression of VEGF protein
VEGF protein after 48 hours in normal culture [2]: additive to synergistic increase in VEGF protein

Cc1c(O)c(O)cc2c1[C@H](C[N+](=O)[O-])C=C1[C@@]2(C)CC[C@@]2(C)[C@@H]3C[C@](C)(C(=O)O)CC[C@]3(C)CC[C@]12C [Analog 2]
protection of H9c2 cardiomyoblasts from hypoxia/reoxygenation stress (H9c2 cardiomyoblasts [6]): effective
protection of H9c2 cardiomyoblasts from hypoxia (H9c2 cardiomyoblasts [9]): effective

CC(C)c1cc2c(c(O)c1O)[C@@]13CCCC(C)(C)[C@@H]1C[C@@H]2OC3=O [Carnosol]
ranking as adjunct agent in combination with Celastrol or Celastrol analogs (gene expression) [1]: among top adjunct agents

CC1=C(O)C(=O)C=C2C1=CC=C1[C@@]2(C)CC[C@@]2(C)[C@@H]3C[C@](C)(C(=O)NCCO)CC[C@]3(C)CC[C@]12C [Analog 3]
protection of H9c2 cardiomyoblasts from hypoxia/reoxygenation stress (H9c2 cardiomyoblasts [6]): effective
stimulation of reporter gene controlled by antioxidant responsive elements (ARE) [7]: among the most potent and efficient compounds tested
ranking as HSP90 inhibitor from expression of HSPs, growth factors, antioxidant proteins/enzymes, cytokines, matrix remodeling proteins [1]: best HSP90 inhibitors
stimulation of reporter gene controlled by heat shock responsive elements (HSR) [8]: among the most potent and efficient compounds tested
protection of H9c2 cardiomyoblasts from hypoxia (H9c2 cardiomyoblasts [9]): effective

O=C(C=Cc1ccccc1O)C=Cc1ccccc1O [Analog 2HBA, Bis(2-hydroxybenzylidene)acetone]
mRNA expression of HO-1 (H9c2 cardiomyoblasts [10]): increased mRNA expression
mRNA expression of VEGFa (H9c2 cardiomyoblasts [10]): increased mRNA expression
ranking as adjunct agent in combination with Celastrol or Celastrol analogs (gene expression) [1]: among top adjunct agents
VEGF protein after 48 hours in hypoxic condition [2]: even greater expression of VEGF protein
VEGF protein after 48 hours in normal culture [2]: additive to synergistic increase in VEGF protein
viability of H9c2 cells following oxidative challenge (H9c2 cardiomyoblasts [4]): synergistic increase in viability
